# Test results taken from ChEMBL document CHEMBL1212812, “Multi-target spectral moment QSAR versus ANN for antiparasitic drugs against different parasite species” (Bioorg Med Chem, 2010).
# pIC50: −log10 of the molar value.
# What was measured:
# Type in all cases: functional, organism-based
# [1] = system: Leishmania donovani; assay: Antimicrobial activity against Leishmania donovani
# [2] = system: Trypanosoma cruzi; assay: Antimicrobial activity against Trypanosoma cruzi
# [3] = system: Plasmodium falciparum; assay: Antimicrobial activity against Plasmodium falciparum
# [4] = system: Trichomonas vaginalis; assay: Antimicrobial activity against Trichomonas vaginalis
# [5] = system: Leishmania infantum; assay: Antimicrobial activity against Leishmania infantum
SMILES,pIC50 ([2]; Trypanosoma cruzi),pIC50 [4],pIC50 [5],further results
CCCC[C@H]1C(=O)O[C@@H]2O[C@@]3(CC)CC[C@H]4[C@H](C)CC[C@@H]1[C@@]24OO3,–,–,–,pIC50 [1]: 4.44
O=C(/C=C/c1ccc2c(c1)OCO2)N1CCOCC1,4.02,–,–,–
Cn1c2nc3ccc(C#N)cc3c-2cc2cc(F)ccc21,4.49,–,–,–
COc1ccc2c(c1)cc1c3ccccc3nc-1n2C,5.70,–,–,pIC50 [3]: 5.30
Nc1ccc2nc(Nc3cccc(O)c3)sc2c1,–,3.70,4.72,–
N#CSCCOc1ccc2[nH]c3ccccc3c2c1,5.00,–,–,–
O=[N+]([O-])c1ccc2nc(Cl)sc2c1,–,5.70,4.32,–
CN(C)c1ccc(Nc2nc3ccc([N+](=O)[O-])cc3s2)cc1,–,3.78,4.60,–
O=[N+]([O-])c1ccc2nc(NCCO)sc2c1,–,3.70,3.98,–
COc1cc(NS(C)(=O)=O)ccc1Nc1nc2ccc([N+](=O)[O-])cc2s1,–,4.08,4.74,–
O=[N+]([O-])c1ccc2nc(Nc3cccc(O)c3)sc2c1,–,3.76,4.82,–
CC(=O)Nc1nc2ccc([N+](=O)[O-])cc2s1,–,3.70,6.00,–
CN(C)c1nc2ccc([N+](=O)[O-])cc2s1,–,3.70,5.40,–
CCN(CC)c1nc2ccc([N+](=O)[O-])cc2s1,–,3.70,4.00,–
C[C@@H]1CC[C@H]2CC(=O)O[C@@H]3O[C@@]4(C)CC[C@@H]1[C@@]23OO4,–,–,–,pIC50 [1]: 3.62
CC[C@H]1C(=O)O[C@@H]2O[C@@]3(C)CC[C@H]4[C@H](C)CC[C@@H]1[C@@]24OO3,–,–,–,pIC50 [1]: 4.21
O=C=NCCOc1ccc(Oc2ccccc2)cc1,4.15,–,–,–
[N-]=[N+]=NCCOc1ccc(Oc2ccccc2)cc1,4.15,–,–,–
O=[N+]([O-])c1ccc2nc(N3CCCCC3)sc2c1,–,3.72,5.22,–
[N-]=[N+]=NC(CO)COc1ccc(Oc2ccccc2)cc1 (stereo not given),4.15,–,–,–
CCN(CC)CCCNc1nc2ccc([N+](=O)[O-])cc2s1,–,4.31,5.40,–
CCCNc1nc2ccc([N+](=O)[O-])cc2s1,–,3.70,6.00,–
O=[N+]([O-])c1ccc2nc(Nc3ccccc3)sc2c1,–,3.73,4.44,–
Nc1ccc2nc(Cl)sc2c1,–,3.70,4.27,–
CN(C)c1ccc(Nc2nc3ccc(N)cc3s2)cc1,–,3.88,4.14,–
Nc1ccc2nc(NCCO)sc2c1,–,3.70,5.52,–

SMILES,pIC50 ([2]; Trypanosoma cruzi),pIC50 [4],pIC50 [5],further results
c1ccc(Oc2ccc(OCN3CC3)cc2)cc1,4.38,–,–,–
COc1cc(NS(C)(=O)=O)ccc1Nc1nc2ccc(N)cc2s1,–,3.81,5.00,–
CC(=O)Nc1nc2ccc(N)cc2s1,–,3.70,3.92,–
CN(C)c1nc2ccc(N)cc2s1,–,3.70,5.70,–
CCN(CC)c1nc2ccc(N)cc2s1,–,3.70,4.64,–
Nc1ccc2nc(N3CCCCC3)sc2c1,–,3.67,5.00,–
CCN(CC)CCCNc1nc2ccc(N)cc2s1,–,3.70,4.19,–
CCCNc1nc2ccc(N)cc2s1,–,3.70,4.01,–
Nc1ccc2nc(Nc3ccccc3)sc2c1,–,3.68,4.20,–
COc1ccc2cc3c4ccccc4nc-3n(C)c2c1,6.00,–,–,pIC50 [3]: 5.70
C[C@@H]1CC[C@H]2[C@@H](CCCc3cc(F)cc(F)c3)C(=O)O[C@@H]3O[C@@]4(C)CC[C@@H]1[C@]32OO4,–,–,–,pIC50 [1]: 4.30
O=C(/C=C/C=C/c1ccc2c(c1)OCO2)NCC1CCCCC1,4.09,–,–,–
C[C@]12CC[C@H](O)C[C@@H]1CC[C@@H]1[C@@H]2CC[C@@]2(C)[C@H]1CC[C@@H]2[C@@](C)(O)C1CCCCN1 (stereo not given in full),6.00,–,–,–
CSCCOc1ccc(Oc2ccccc2)cc1,4.00,–,–,–
c1ccc(CSCCOc2ccc(Oc3ccccc3)cc2)cc1,4.22,–,–,–
N#CSCCOc1ccc([S+]([O-])c2ccccc2)cc1 (stereo not given),5.10,–,–,–
N#CSCCOc1ccc(Nc2ccccc2)cc1,5.52,–,–,–
C[C@@H]1CC[C@H]2[C@@H](CCCc3ccc(Cl)cc3)CO[C@@H]3O[C@@]4(C)CC[C@@H]1[C@]32OO4,–,–,–,pIC50 [1]: 5.30
C[C@@H]1CC[C@H]2[C@@H](CCCc3ccc(C(F)(F)F)cc3)C(O)O[C@@H]3O[C@@]4(C)CC[C@@H]1[C@]32OO4 (stereo not given in full),–,–,–,pIC50 [1]: 5.52
C[C@@H]1CC[C@H]2[C@@H](CCCc3ccc(C(F)(F)F)cc3)CO[C@@H]3O[C@@]4(C)CC[C@@H]1[C@]32OO4,–,–,–,pIC50 [1]: 5.70
C[C@@H]1CC[C@H]2[C@@H](CCCc3cccc(Cl)c3)CO[C@@H]3O[C@@]4(C)CC[C@@H]1[C@]32OO4,–,–,–,pIC50 [1]: 5.40
C[C@@H]1CC[C@H]2[C@@H](CCCc3ccc(Cl)cc3)C(O)O[C@@H]3O[C@@]4(C)CC[C@@H]1[C@]32OO4 (stereo not given in full),–,–,–,pIC50 [1]: 5.30
CCCN(CCC)c1c([N+](=O)[O-])cc(S(=O)(=O)Nc2cc(Cl)cc(Cl)c2)cc1[N+](=O)[O-],–,–,–,pIC50 [1]: 5.40
CCC[C@@]12CC[C@H]3[C@H](C)CC[C@H]4CC(=O)O[C@H](O1)[C@]43OO2,–,–,–,pIC50 [1]: 4.39
CCOC(=O)CC[C@@]12CC[C@H]3[C@H](C)CC[C@H]4CC(=O)O[C@H](O1)[C@]43OO2,–,–,–,pIC50 [1]: 4.51
Nc1nc2ccc([N+](=O)[O-])cc2s1,–,3.70,4.29,–

SMILES,pIC50 ([2]; Trypanosoma cruzi),pIC50 [4],pIC50 [5],further results
O=C(/C=C/C=C/C=C/c1ccc2c(c1)OCO2)N1CCCCC1,5.15,–,–,–
Nc1ccc2nc(N)sc2c1,–,3.70,3.82,–
O=C(/C=C/C=C/c1ccc2c(c1)OCO2)OC1CCCCC1,4.08,–,–,–
COc1ccc(CCNC(=O)/C=C/C=C/c2ccc3c(c2)OCO3)cc1OC,4.18,–,–,–
Cc1ccc2c(c1)cc1c3ccccc3nc-1n2C,5.40,–,–,pIC50 [3]: 5.70
C[C@@H]1CC[C@H]2[C@@H](CCCc3ccc(Cl)c(Cl)c3)CO[C@@H]3O[C@@]4(C)CC[C@@H]1[C@]32OO4,–,–,–,pIC50 [1]: 5.70
C(/C=C/c1ccc2c(c1)OCO2)=C\CN1CCCCC1,5.00,–,–,–
Cn1c2nc3ccccc3c-2cc2cc(Br)ccc21,4.49,–,–,–
CCCN(CCC)c1c([N+](=O)[O-])cc(S(=O)(=O)N(c2ccccc2)c2ccccc2)cc1[N+](=O)[O-],–,–,–,pIC50 [1]: 4.00
CCCCN(CCCC)c1c([N+](=O)[O-])cc(S(=O)(=O)Nc2ccccc2)cc1[N+](=O)[O-],–,–,–,pIC50 [1]: 5.52
CCCC[C@H]1C(=O)O[C@@H]2O[C@@]3(CCCCc4ccccc4)CC[C@H]4[C@H](C)CC[C@@H]1[C@@]24OO3,–,–,–,pIC50 [1]: 5.30
C[C@@H]1CC[C@H]2CC(=O)O[C@@H]3O[C@@]4(CCCc5ccc(Cl)cc5)CC[C@@H]1[C@@]23OO4,–,–,–,pIC50 [1]: 4.96
CCCC[C@@]12CC[C@H]3[C@H](C)CC[C@H]4CC(=O)O[C@H](O1)[C@]43OO2,–,–,–,pIC50 [1]: 3.59
O=c1ncnc2n([C@H]3O[C@@H](CO)[C@H](O)[C@@H]3O)[nH]cc1-2 [ALLOPURINOL RIBOSIDE],–,–,–,pIC50 [1]: 5.40
C[C@@H]1[C@H](O)[C@@H](C)/C=C/C=C/C=C/C=C/C=C/C=C/C=C/[C@H](O[C@@H]2O[C@H](C)[C@@H](O)[C@H](N)[C@@H]2O)C[C@@H]2O[C@](O)(C[C@@H](O)C[C@@H](O)[C@H](O)CC[C@@H](O)C[C@@H](O)CC(=O)O[C@H]1C)C[C@H](O)[C@H]2C(=O)O [AMPHOTERICIN B],–,4.92,–,–
CCO[C@H]1O[C@@H]2O[C@@]3(C)CC[C@H]4[C@H](C)CC[C@@H]([C@H]1C)[C@@]24OO3 [ARTEMOTIL],–,–,–,pIC50 [1]: 4.35; pIC50 [3]: 3.00
O=C(Cn1ccnc1[N+](=O)[O-])NCc1ccccc1 [BENZNIDAZOLE],5.52,–,–,–
"NCCC[C@](N)(C(=O)O)C(F)F [EFLORNITHINE, (S)-]",–,–,–,pIC50 [1]: 3.65
O=C(/C=C/c1ccc2c(c1)OCO2)N1CCCCC1 [ILEPCIMIDE],4.01,–,–,–
CC(=O)N1CCN(c2ccc(OCC3COC(Cn4ccnc4)(c4ccc(Cl)cc4Cl)O3)cc2)CC1 (stereo not given) [KETOCONAZOLE],5.52,–,–,pIC50 [1]: 5.70
Cc1ncc([N+](=O)[O-])n1CCO [METRONIDAZOLE],–,5.52,–,–
O=C(O)/C=C/C=C/c1ccc2c(c1)OCO2 [PIPERIC ACID],3.94,–,–,–
O=C(/C=C/C=C/c1ccc2c(c1)OCO2)N1CCCCC1 [PIPERINE],5.30,–,–,–
Nc1ncnc2c1ncn2[C@@H]1O[C@H](C[C@@H](N)CC[C@H](N)C(=O)O)[C@@H](O)[C@H]1O [SINEFUNGIN],–,–,–,pIC50 [1]: 6.00
C[S+]([O-])CCCCN=C=S (stereo not given) [SULFORAPHANE],3.92,–,–,pIC50 [2]: 3.99
O=C(CCCCc1ccc2c(c1)OCO2)N1CCCCC1 [TETRAHYDROPIPERINE],4.72,–,–,–
